# Measurements: patent US20140308317A1, “Polymeric Compounds And Methods Of Making And Using The Same” (CELLCEUTIX CORPORATION, priority 2012, published 2014)
# Like-named read-outs stand apart in the source and are kept apart here.
# What was measured:
# E. Coli ATCC 25922 = test: Minimum Inhibitory Concentration (MIC), modified microbroth dilution; type: cell-based; settings: for MIC50: Escherichia coli, read-out: MIC50 E. coli
# [1] = Cytotoxicity colorimetric (tetrazolium) assay; type: cell-based, mouse; settings: mouse, NIH/3T3 cells (CRL-1658), NIH/3T3 cells; one hour with compound in serum-free media
# Description: (§1) Cytotoxicity of the compounds was evaluated in a colorimetric assay using a transformed human liver cell line (HepG2, HB-8065) and an embryonic mouse cell line (NIH/3T3 cells, CRL-1658). This assay measures the bioreduction of a novel tetrazolium compound to a soluble formazan product by viable cells. HepG2 cells were seeded in 96 well plates at 2×10^4 cells/well in MEM medium with 10% fetal bovine serum (FBS) 24 hours prior to use. NIH/3T3 cells were seeded in 96 well plates at 2×10^4 cells/well in DMEM medium with 10% bovine calf serum (BCS) 24 hours prior to use. Cell monolayers were rinsed in serum-free media and incubated for one hour with compounds in serum-free media. After incubation, the media is replaced with serum supplemented media and live cells were measured using the Cell Titer 96 Aqueous […] Assay kit (Promega, Madison, Wis.). EC50 values were determined using a four parameter logistic equation: Y=Bottom+(Top-Bottom)/(1+10̂((LogEC50−X)*HillSlope)).
# (§2) Actual results from a representative cytotoxicity assay are shown below in Table 2. Data is expressed as EC50 in μg/mL.
# [2] = test system: Klebsiella pneumoniae ATCC 13883; test: Minimum Inhibitory Concentration (MIC), modified microbroth dilution; type: cell-based; settings: for MIC50: Klebsiella pneumoniae, read-out: MIC50 K. Pnuemnoiae
# [3] = test system: Pseudomonas aeruginosa ATCC 10145; test: as above; type: cell-based; settings: for MIC50: Pseudomonas aeruginosa, read-out: MIC50 P. Aeruginosa
# [4] = test system: Staphylococcus aureus ATCC 27660; test: as above; type: cell-based; settings: for MIC50: Staphylococcus aureus, read-out: MIC50 S. aureus
# [5] = Cytotoxicity colorimetric (tetrazolium) assay; type: cell-based, human; settings: human, HepG2 cells (HB-8065), HepG2 cells; one hour with compound in serum-free media
# Description: as §1, §2
# [6] = test system: Enterococcus faecalis ATCC 29212; test: Minimum Inhibitory Concentration (MIC), modified microbroth dilution; type: cell-based; settings: for MIC50: Enterococcus faecalis, read-out: MIC50 E. faecalis
# [7] = ATCC25922, E. coli (25922), overnight incubation (18 hours)
# [8] = ATCC13883, K. pneumoniae (13883), overnight incubation (18 hours)
# [9] = ATCC10145, P. aeruginosa (10145), overnight incubation (18 hours)
# [10] = ATCC27660, S. aureus (27660), overnight incubation (18 hours)
# [11] = ATCC29212, E. faecalis (29212), overnight incubation (18 hours)
# [12] = E. coli (25922), overnight incubation (18 hours)
# [13] = K. pneumoniae (13883), overnight incubation (18 hours)
# [14] = P. aeruginosa (10145), overnight incubation (18 hours)
# [15] = S. aureus (27660), overnight incubation (18 hours)
# [16] = E. faecalis (29212), overnight incubation (18 hours)
SMILES,EC50 at 1 h [1] [µg/mL],MIC50 (E. Coli ATCC 25922; [7]) [µg/mL],"MIC50 [2, 8] [µg/mL]","MIC50 [3, 9] [µg/mL]","MIC50 [4, 10] [µg/mL]","MIC50 [6, 11] [µg/mL]",MIC50 E. coli (E. Coli ATCC 25922; [12]) [µg/mL],"MIC50 K. Pnuemnoiae [2, 13] [µg/mL]","MIC50 P. Aeruginosa [3, 14] [µg/mL]","MIC50 S. aureus [4, 15] [µg/mL]","MIC50 E. faecalis [6, 16] [µg/mL]",also measured
NCCCN1c2ccccc2Sc2ccccc21 [Compound 100],13,,,,,,,,,,,"MIC50 (E. Coli ATCC 25922; ATCC25922, 18 h): 100 µg/mL; MIC50 ([2]; ATCC13883, 18 h): 100 µg/mL; MIC50 ([3]; ATCC10145, 18 h): 100 µg/mL; MIC50 ([4]; ATCC27660, 18 h): 100 µg/mL; EC50 at 1 h [5]: 18 µg/mL; MIC50 ([6]; ATCC29212, 18 h): 100 µg/mL"
NCCCN1c2ccccc2Sc2ccc(C(F)(F)F)cc21 [Compound 101],9,25,50,> 100,25,12.5,,,,,,
NCCCN1c2ccccc2Sc2ccc(Cl)cc21 [Compound 103],,> 100,> 100,> 100,25,> 100,,,,,,
NCCCN1c2ccc(N)cc2Sc2ccc(C(F)(F)F)cc21 [Compound 104],,100,> 100,> 100,100,> 100,,,,,,
NCCCn1c2ccccc2c2ccccc21 [Compound 105],,,,,,,>100,>100,>100,>100,>100,
NCCCn1c2cc(Br)ccc2c2ccc(Br)cc21 [Compound 106],107,12.5,25,100,12.5,,,,,,,EC50 at 1 h [5]: 61.9 µg/mL
NCCCCn1cc(-c2cccc(-c3cn(CCCCN)nn3)c2)nn1 [Compound 107],,,,,,,>100,>100,>100,>100,>100,
NCCCn1cc(-c2cccc(-c3cn(CCCN)nn3)c2)nn1 [Compound 108],,,,,,,>100,>100,>100,>100,>100,
NCCn1cc(-c2cccc(-c3cn(CCN)nn3)c2)nn1 [Compound 109],,,,,,,>100,>100,>100,>100,>100,
Cl.Cl.NCCCc1cccc(-c2cccc(-c3cccc(CCCN)c3)c2)c1 [Compound 110],,,,,,,25,100,100,25,100,
NCCc1cc(CCN)cc(-c2cccc(-c3cc(CCN)cc(CCN)c3)c2)c1 [Compound 115],1130,25,50,> 50,25,> 50,,,,,,EC50 at 1 h [5]: > 1160 µg/mL
NC/C=C/c1cc(/C=C/CN)cc(-c2cccc(-c3cc(/C=C/CN)cc(/C=C/CN)c3)c2)c1 [Compound 117],,25,> 50,50,12.5,50,,,,,,
N=C(N)NC/C=C/c1cc(/C=C/CNC(=N)N)cc(-c2cccc(-c3cc(/C=C/CNC(=N)N)cc(/C=C/CNC(=N)N)c3)c2)c1 [Compound 118],,0.78,12.5,12.5,0.78,12.5,,,,,,
N=C(N)NCCCOc1cc(OCCCNC(=N)N)c(-c2ccc(F)c(F)c2)cc1-c1ccc(F)c(F)c1 [Compound 119],113,,,,,,,,,,,
N=C(N)NCCCOc1cc(OCCCNC(=N)N)c(-c2cc(F)c(F)c(F)c2)cc1-c1cc(F)c(F)c(F)c1 [Compound 120],99,,,,,,,,,,,
